Patent US10314883B2, “Compositions and methods for regulating blood pressure” (University of Virginia Patent Foundation, priority 2015, dated 2019)
Like-named read-outs stand apart in the source and are kept apart here.

Assays:
abdominal aortic rings = assay: Wire myography of abdominal aortic rings; type: cell-based, mouse; conditions: for EC50: Mus musculus, read-out: EC50 of phenylephrine, aortic ring contraction
[1] = test system: thoracodorsal arteries (TDA); assay: tissue or blood; conditions: Mus musculus
[2] = test system: thoracodorsal arteries (TDA); assay: Pressure myography: agonist-induced constriction of pressurized TDAs from C57Bl/6 mice with pannexin inhibitors or Panx1 mimetic peptides; type: cell-based, mouse; conditions: for effect on phenylephrine-induced constriction of pressurized TDAs: TAT-linked peptides
Procedure: The contractile responses of pressurized thoracodorsal arteries (TDA) were measured as previously described. Briefly, TDA were isolated and placed in cold Krebs-HEPES until cannulation in a pressure arteriograph (Danish MyoTechnology). After a 30 minute equilibration period, cumulative concentrations of contractile agonists were applied to the TDA pressurized at 80 mmHg, and the vessel was visualized with an Olympus IX-71 microscope attached to a Hamamatsu EM-CCD camera coupled to Slidebook imaging software. […] Lastly, maximal diameter was measured at the end of each experiment in calcium-free Krebs-HEPES supplemented with EGTA (1 mmol/L) and sodium nitroprusside (10 μmol/L). In cases where the vessels were not constricting to the contractile agonist, their viability was assessed by applying 40 mM KCl and only TDA reaching 30% of the maximal diameter were considered for analysis. The contractile responses, as well as the basal tone, are expressed as a percentage of the maximal diameter.
Using pressure arteriography on TDA dissected from C57Bl/6 mice (as described; and aortic ring contraction, as described), we measured the effect of pannexin inhibitors, probenecid and 10Panx1, on the contractile response upon stimulation with different vasoconstrictors: phenylephrine (FIG. 1A), noradrenaline (also called norepinephrine) (FIG. 1B), serotonin (also known as 5-HT) (FIG. 1C) and endothelin-1 (FIG. 1D). […] In contrast, ^10Panx1 and probenecid had no effect on contraction of TDA measured in response to cumulative concentrations of serotonin or endothelin-1 (FIGS. 1C-D; Table 1).
To determine the region of Panx1 necessary for channel activation in response to α1AR stimulation, we produced short peptides derived from the intracellular regions of the Panx1 channel. We generated two peptides mimicking unique mouse Panx1 (mPanx1) sequences in the first intracellular loop (IL1 and IL2) and two peptides mimicking unique mPanx1 sequences in the C-terminal region, one in second intracellular loop (CT1) and one in the C-terminal tail (CT2) (FIG. 4A scissors indicate caspase 3 cleavage site; Table 3). All peptides also contained a TAT sequence to facilitate entry into cells and we verified the intracellular localization of each peptide by immunofluorescence detection of the TAT sequence in TDAs pre-incubated with each peptide (FIG. 7A). We tested the effect of each peptide on phenylephrine-induced contractile responses in pressurized TDAs from C57Bl/6 mice (FIGS. 4B-E). […] Note that these differences in effects of phenylephrine were similar in magnitude to those observed in arteries from SMC-specific Panx1-knockout mice and littermate controls (FIG. 2C, Table 2).

C57Bl/6 mice = assay: Blood pressure by radiotelemetry after peptide injection; type: in vivo, mouse; conditions: conscious C57Bl/6 mice, acute intraperitoneal injection, within 1.5 hours; 5 mg/kg or 20 mg/kg
Procedure: Blood pressure was measured using radiotelemetry units (Data Sciences International, DSI) implanted in C57Bl/6, Cre^−/Panx1^F1, Cre^−/Panx1^WT, Cre^+/Panx1^WT, and Cre^+/Panx1^F1 mice. The catheter of a radiotelemetry unit (TA11PA-C10, DSI) was implanted in the mouse left carotid artery under isoflurane anesthesia, and the catheter was tunneled trough the radiotransmitter placed in a subcutaneous pouch along the right flank of the mouse, as previously described. After implantation, mice were allowed to recover for seven days.
[…] Blood pressure was recorded for another 1.5 hours, and the mean arterial pressure data from 1 to 1.5 hours post injection was averaged and compared to the basal blood pressure. The ΔMAP was calculated by subtracting the average mean arterial pressure measured for 30 minutes prior to injection to the mean arterial pressure measured for 30 minutes one hour post injection. […]
Based on the central role of α1AR signaling in blood pressure homeostasis, we evaluated the effect of Panx1 deletion on systemic blood pressure. Blood pressure was measured using radiotelemetry units as previously described by us. Blood pressure was measured on the conditional KO mouse model for five days before proceeding to tamoxifen injections, and for another five days 24 hours after the last tamoxifen injection. […]

mice = assay: Cecal ligation puncture (CLP) model of sepsis; type: in vivo, mouse
Source text: Knockout of Panx1 specifically from the endothelium or treatment of mice with PanX both reversed the decreased in heat rate typically observed after induction of sepsis. […] Knockout of Panx1 specifically from the endothelium or treatment of mice with PanX both reversed the increased level of blood urea nitrogen, which is due in large part to increased vein permeability in sepsis. The three groups in each graph are Control (left bar), Panx1 Endothelial Cell Knockout Mouse (middle bar), and Control+IL2 (PanX) Peptide treatment.

resistance arterioles = assay: Diameter of resistance arterioles isolated from adipose tissue of hypertensive subjects; type: cell-based, human; conditions: arterioles from treatment resistant hypertension patients
Source text: The resistance arterioles were isolated from adipose tissue. Treatment resistant hypertension: >3 continue to have high blood pressure.

[3] = aortic rings from Cre^+/Panx1^FL with tamoxifen
[4] = aortic rings from Cre^+/Panx1^FL, peanut oil
[5] = in presence of the named peptide

Row | Molecule | EC50 (abdominal aortic rings; [3]) [nM] | EC50 (abdominal aortic rings; [4]) [nM] | EMAX of phenylephrine, aortic ring contraction (abdominal aortic rings; [3]) | EMAX of phenylephrine, aortic ring contraction (abdominal aortic rings; [4]) | EC50 ([1]; read-out: EC50 of agonist for TDA constriction, TDAs from Cre^+/Panx1^FL mice, tamoxifen-injected (SMC Panx1 knockout)) [nM] | EC50 ([1]; read-out: EC50 of agonist for TDA constriction, TDAs from Cre^+/Panx1^WT mice, tamoxifen-injected) [nM] | EC50 ([1]; read-out: EC50 of agonist for TDA constriction, TDAs from Cre^−/Panx1^FL mice, tamoxifen-injected) [nM] | EC50 ([1]; read-out: EC50 of agonist for TDA constriction, TDAs from Cre^−/Panx1^WT mice, tamoxifen-injected) [nM] | effect on noradrenaline-induced constriction ([2]; C57Bl/6 TDAs) | effect on phenylephrine-induced constriction of pressurized TDAs ([2]; C57Bl/6 TDAs) | EMAX of endothelin-1 for TDA constriction [2, 5] | EMAX of noradrenaline for TDA constriction [2, 5] | EMAX of phenylephrine for TDA constriction [2, 5] | EMAX of serotonin for TDA constriction [2, 5] | reduction of mean arterial blood pressure (C57Bl/6 mice) | effect on decreased heart rate after induction of sepsis (mice) | effect on increased blood urea nitrogen after induction of sepsis (mice) | effect on hyperconstriction of resistance arterioles (resistance arterioles)
1 | CNC[C@H](O)c1cccc(O)c1 [Phenylephrine, phenylephrine] | 3200 ± 320 | 3390 ± 380 | 343.4 ± 69.4 percentage of constriction to KCl | 368.8 ± 78.7 percentage of constriction to KCl | 7840 ± 5600 | 1790 ± 1130 | 640 ± 370 | 660 ± 130 |  |  |  |  |  |  |  |  |  | 
2 | KYPIVEQYLKYGRKKQRRR [IL2] |  |  |  |  |  |  |  |  | inhibited | significantly decreased | 41.9 ± 3.73 percentage of maximal diameter | 53.4 ± 7.00 percentage of maximal diameter | 68.6 ± 5.11 percentage of maximal diameter | 36.7 ± 3.52 percentage of maximal diameter | 13.0±3.3 mmHg | reversed | reversed | significantly reduces hyperconstriction
3 | scrambled intracellular loop 2 IYLYVEQKPY (SEQ ID NO: 7) linked with a TAT sequence [Scrambled IL2] |  |  |  |  |  |  |  |  |  | no significant effect |  |  | 47.5 ± 2.17 percentage of maximal diameter |  | no significant effect |  |  | 
